# Assay results reported in US20240294519A1, “PYRROLO[2,3-b]PYRIDINE PGDH INHIBITORS AND METHODS OF MAKING AND USING” (EPIRIUM BIO INC., priority 2021, published 2024).
# Molecular target: T1, 15-PGDH/HPGD (Homo sapiens, UniProt P15428)
# T1 construct: purchased R&D System 5660-DH
# T1 sequence (P15428 1-266): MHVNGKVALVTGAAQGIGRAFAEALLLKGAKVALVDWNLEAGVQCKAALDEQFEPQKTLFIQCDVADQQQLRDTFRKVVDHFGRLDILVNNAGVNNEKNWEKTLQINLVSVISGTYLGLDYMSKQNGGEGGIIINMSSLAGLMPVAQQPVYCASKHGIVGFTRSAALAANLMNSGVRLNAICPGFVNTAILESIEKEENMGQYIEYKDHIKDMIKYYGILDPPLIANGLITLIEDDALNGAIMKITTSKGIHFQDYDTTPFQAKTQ
# Test: hPGDH inhibitor screening biochemical assay
# Conditions: 10 nM enzyme, 15 μM PGE2, 0.25 mM NAD, fluorescence ex/em 340/485 nm
# Experimental: A hydroxyprostaglandin dehydrogenase inhibition screening biochemical assay can be performed to assess the synthesized inhibitors provided herein. Provided herein is an exemplary biochemical assay for hPGDH inhibitor screening.
# The in vitro biochemical assay can be performed in white, 384 plates in total 20 μl reaction volume consisting of 10 nM of 15-PGDH/HPGD (R&D System #5660-DH), 15 μM Prostaglandin E2 (Sigma, C8 t #P5640-10 MG) and 0.25 mM β-Nicotinamide adenine dinucleotide sodium salt (Sigma, C8 t #N0632-5G) made in reaction buffer (50 mM Tris-HCl, pH 7.5, 0.01% Tween 20) at 10-point dose response curve for test/tool compounds. Briefly, 5 μl (4×) of compounds solution and 5 μl (final concentration, 10 nM) of enzyme solution is added to white 384 well plates and incubated for 10 mins at 37° C. 5 μl (4×) of […] and 5 μl (4×) of β-Nicotinamide adenine dinucleotide sodium salt is added to the wells and incubated for 10 mins at room temperature. Fluorescence is recorded at ex/em=340 nm/485 nm. The percentage (%) inhibition of enzyme activity was determined relative to positive control (1% DMSO) and IC50 was calculated using GraphPad prism software (four parameter-variable slope equation).
row,IC50,SMILES
1,< 100 nM,O=C(Nc1cncc(-n2ccc3cc(C(=O)N4CCC(F)(F)CC4)cnc32)c1)C1CCC(F)(F)CC1 [Compound B-237]
2,< 100 nM,CO[C@H]1CCCN(C(=O)c2cnc3c(ccn3-c3ccc(-c4nnc[nH]4)c(F)c3)c2)C1 [Compound B-247]
3,< 100 nM,O=C(c1cnc2c(ccn2-c2ccc(-c3nnc[nH]3)cc2)c1)N1CCC[C@H](C(F)(F)F)C1 [Compound B-229]
4,< 100 nM,O=C(c1cnc2c(ccn2-c2ccc(-c3nnc[nH]3)c(Cl)c2)c1)N1CCSCC1 [Compound B-253]
5,< 100 nM,"C[C@H]1CCCN(C(=O)c2cnc3c(ccn3-c3ccc(-c4nc[nH]n4)cc3)c2)C1 [Compound B-33, (S)-(1-(4-(1H-1,2,4-triazol-3-yl)phenyl)-1H-pyrrolo[2,3-b]pyridin-5-yl)(3-methylpiperidin-1-yl)methanone]"
6,< 100 nM,"O=C(c1cnc2c(ccn2-c2ccc(-c3nc[nH]n3)cn2)c1)N1CCC(F)(F)CC1 [Compound B-34, (1-(5-(1H-1,2,4-triazol-3-yl)pyridin-2-yl)-1H-pyrrolo[2,3-b]pyridin-5-yl)(4,4-difluoropiperidin-1-yl)methanone]"
7,< 100 nM,C[C@H]1CCCN(C(=O)c2cnc3c(ccn3-c3ccc(N4CCNC4=O)nc3)c2)C1 [Compound B-30]
8,< 100 nM,O=C(c1cnc2c(ccn2-c2ccc(N3CCNC3=O)nc2)c1)N1CCC(F)(F)CC1 [Compound B-2]
9,< 100 nM,"N=C(NN)c1ccc(-n2ccc3cc(C(=O)N4CCC(F)(F)CC4)cnc32)cn1 [Compound B-48, 5-(5-(4,4-difluoropiperidine-1-carbonyl)-1H-pyrrolo[2,3-b]pyridin-1-yl) picolinimidohydrazide]"
10,< 100 nM,C[C@@]1(O)CCCN(C(=O)c2cnc3c(ccn3-c3ccc(-c4nnc[nH]4)cc3)c2)C1 [Compound B-243]
11,< 100 nM,O=C(c1cnc2c(ccn2-c2ccc(-c3nnc[nH]3)nc2)c1)N1CCC2(CC1)CC2 [Compound B-56]
12,< 100 nM,Nc1nnc(-c2cccc(-n3ccc4cc(C(=O)N5CCC(F)(F)CC5)cnc43)c2)[nH]1 [Compound B-71]
13,< 100 nM,"Nc1nnc(-c2ccc(-n3ccc4cc(C(=O)N5CCC(F)(F)CC5)cnc43)cc2)[nH]1 [Compound B-78, (1-(4-(5-amino-4H-1,2,4-triazol-3-yl)phenyl)-1H-pyrrolo[2,3-b]pyridin-5-yl)(4,4-difluoropiperidin-1-yl)methanone]"
14,< 100 nM,CO[C@@H]1CCN(C(=O)c2cnc3c(ccn3-c3ccc(-c4ncn[nH]4)nc3)c2)C1 [Compound B-44]
15,< 100 nM,"Cc1nnc(-c2ccc(-n3ccc4cc(C(=O)N5CCC(F)(F)CC5)cnc43)cn2)[nH]1 [Compound B-21, (4,4-difluoropiperidin-1-yl)(1-(6-(5-methyl-4H-1,2,4-triazol-3-yl)pyridin-3-yl)-1H-pyrrolo[2,3-b]pyridin-5-yl)methanone]"
16,< 100 nM,"O=C(O)c1ccc(-n2ccc3cc(C(=O)N4CCC(F)(F)CC4)cnc32)cc1F [Compound B-27, 4-(5-(4,4-difluoropiperidine-1-carbonyl)-1H-pyrrolo[2,3-b]pyridin-1-yl)-2-fluorobenzoic acid]"
17,< 100 nM,C[C@]1(O)CCCN(C(=O)c2cnc3c(ccn3-c3cccc(-c4nnc[nH]4)c3)c2)C1 [Compound B-249]
18,< 100 nM,CC1(O)CCCN(C(=O)c2cnc3c(ccn3-c3cc(Cl)cc(-c4nnc[nH]4)c3)c2)C1 (centres unmarked) [Compound B-240]
19,< 100 nM,O=C(Nc1cncc(-n2ccc3cc(C(=O)N4CCC(F)(F)CC4)cnc32)c1)C1CC1 [Compound B-93]
20,100 to 1000 nM,O=C(c1cnc2c(ccn2-c2ccc(-c3ncn[nH]3)nc2)c1)N1CC[C@H](O)C1 [Compound B-43]
21,< 100 nM,O=C(c1cnc2c(ccn2-c2ccc(-c3ncn[nH]3)nc2)c1)N1CCC[C@H](O)C1 [Compound B-39]
22,< 100 nM,Nc1nnc(-c2ccc(-n3ccc4cc(C(=O)N5CCCC(F)(F)C5)cnc43)cc2)[nH]1 [Compound B-54]
23,< 100 nM,"Cc1nn[nH]c1-c1cncc(-n2ccc3cc(C(=O)N4CCC(F)(F)CC4)cnc32)c1 [Compound B-18, (4,4-difluoropiperidin-1-yl) (1-(5-(4-methyl-1H-1,2,3-triazol-5-yl)pyridin-3-yl)-1H-pyrrolo[2,3-b]pyridin-5-yl)methanone]"
24,< 100 nM,COC(=O)Nc1cncc(-n2ccc3cc(C(=O)N4CCC[C@H](C(F)(F)F)C4)cnc32)c1 [Compound B-65]
25,< 100 nM,C[C@]1(O)CCCN(C(=O)c2cnc3c(ccn3-c3ccc(-c4nnc[nH]4)cc3)c2)C1 [Compound B-248]
26,< 100 nM,CN(C)c1nnc(-c2cccc(-n3ccc4cc(C(=O)N5CCC(F)(F)CC5)cnc43)c2)[nH]1 [Compound B-73]

row,IC50,SMILES
1,< 100 nM,O=C(c1cnc2c(ccn2-c2cc(Cl)cc(-c3nnc[nH]3)c2)c1)N1CCSCC1 [Compound B-251]
2,< 100 nM,N#Cc1cc(-c2nnc[nH]2)cc(-n2ccc3cc(C(=O)N4CCC(F)(F)CC4)cnc32)c1 [Compound B-274]
3,< 100 nM,NC(=O)c1ccc(-n2ccc3cc(C(=O)N4CCC(F)(F)CC4)cnc32)cn1 [Compound B-104]
4,< 100 nM,"C[C@H]1CCCN(C(=O)c2cnc3c(ccn3-c3cccc(-c4nc[nH]n4)c3)c2)C1 [Compound B-37, (S)-(1-(3-(1H-1,2,4-triazol-3-yl)phenyl)-1H-pyrrolo[2,3-b]pyridin-5-yl)(3-methylpiperidin-1-yl)methanone]"
5,< 100 nM,C[C@H]1CCCN(C(=O)c2cnc3c(ccn3-c3ccc4nc(N)nn4c3)c2)C1 [Compound B-29]
6,< 100 nM,C[C@H]1CCN(C(=O)c2cnc3c(ccn3-c3ccc(-c4ncn[nH]4)nc3)c2)C1 [Compound B-41]
7,< 100 nM,O=C(c1cnc2c(ccn2-c2ccc(-c3nnc[nH]3)c(F)c2)c1)N1CC[S+]([O-])CC1 [Compound B-268]
8,< 100 nM,CCn1cc(-n2ccc3cc(C(=O)N4CCC(F)(F)CC4)cnc32)cn1 [Compound B-95]
9,100 to 1000 nM,O=C(c1cnc2c(ccn2-c2cnn(CC(F)F)c2)c1)N1CCC(F)(F)CC1 [Compound B-235]
10,100 to 1000 nM,O=C(c1cnc2c(ccn2-c2cnn(CC(F)(F)F)c2)c1)N1CCCC(C(F)(F)F)C1 (centres unmarked) [Compound B-59]
11,< 100 nM,O=C(c1cnc2c(ccn2-c2cc(Cl)cc(-c3nnc[nH]3)c2)c1)N1CC[S+]([O-])CC1 [Compound B-257]
12,< 100 nM,"CC1CN(C(=O)c2cnc3c(ccn3-c3ccc(-c4ncn[nH]4)nc3)c2)CC(C)O1 (centres unmarked) [Compound B-47, (1-(6-(1H-1,2,4-triazol-5-yl)pyridin-3-yl)-1H-pyrrolo[2,3-b]pyridin-5-yl)(2,6-dimethylmorpholino) methanone]"
13,< 100 nM,C[C@H]1CCN(C(=O)c2cnc3c(ccn3-c3ccc(C(=O)O)cc3)c2)C1 [Compound B-7]
14,< 100 nM,C[C@@H]1CCCN(C(=O)c2cnc3c(ccn3-c3ccc(C(=O)O)cc3)c2)C1 [Compound B-3]
15,< 100 nM,Nc1nc2ccc(-n3ccc4cc(C(=O)N5CCC(F)(F)CC5)cnc43)cn2n1 [Compound B-12]
16,< 100 nM,O=C(c1cnc2c(ccn2-c2ccc(-c3nnc[nH]3)cc2F)c1)N1CCC(F)(F)CC1 [Compound B-267]
17,< 100 nM,C[C@H]1CCCN(C(=O)c2cnc3c(ccn3-c3ccc(-c4nnc[nH]4)nc3)c2)C1 [Compound B-28]
18,< 100 nM,"Cc1[nH]nnc1-c1ccc(-n2ccc3cc(C(=O)N4CCC(F)(F)CC4)cnc32)cn1 [Compound B-19, (4,4-difluoropiperidin-1-yl)(1-(6-(5-methyl-1H-1,2,3-triazol-4-yl)pyridin-3-yl)-1H-pyrrolo[2,3-b]pyridin-5-yl)methanone]"
19,< 100 nM,CCOC(=O)Nc1cncc(-n2ccc3cc(C(=O)N4CCCC(C(F)(F)F)C4)cnc32)c1 (centres unmarked) [Compound B-238]
20,< 100 nM,"Cc1nc(-c2ccc(-n3ccc4cc(C(=O)N5CCC(F)(F)CC5)cnc43)cn2)c[nH]1 [Compound B-16, (4,4-difluoropiperidin-1-yl)(1-(6-(2-methyl-1H-imidazol-4-yl)pyridin-3-yl)-1H-pyrrolo[2,3-b]pyridin-5-yl)methanone]"
21,< 100 nM,O=C(c1cnc2c(ccn2-c2cnn(CC(F)(F)F)c2)c1)N1CCCC(F)(F)C1 [Compound B-57]
22,< 100 nM,O=C(O)c1ccc(-n2ccc3cc(C(=O)N4CC[C@H](F)C4)cnc32)cc1 [Compound B-8]
23,< 100 nM,Cc1cc(-n2ccc3cc(C(=O)N4CCC(F)(F)CC4)cnc32)ccc1-c1nnc[nH]1 [Compound B-255]
24,< 100 nM,C[C@H]1CCCN(C(=O)c2cnc3c(ccn3-c3ccc(C(=O)O)cc3)c2)C1 [Compound B-4]
25,< 100 nM,N#Cc1ccc(-n2ccc3cc(C(=O)N4CC[C@@H](F)C4)cnc32)cc1 [Compound B-126]
26,< 100 nM,O=C(c1cnc2c(ccn2-c2cc(-c3nnc[nH]3)ccc2F)c1)N1CCC(F)(F)CC1 [Compound B-272]

row,SMILES,IC50
1,CCOC(=O)Nc1cncc(-n2ccc3cc(C(=O)N4CCCC(F)(F)C4)cnc32)c1 [Compound B-55],< 100 nM
